Source: publication doi:10.1101/2024.12.12.628185v1 (biorxiv, 2024)

Molecular target: T1, ERα (purified full-length human ERα) (Homo sapiens, UniProt P03372)
T1 sequence (P03372 1-595): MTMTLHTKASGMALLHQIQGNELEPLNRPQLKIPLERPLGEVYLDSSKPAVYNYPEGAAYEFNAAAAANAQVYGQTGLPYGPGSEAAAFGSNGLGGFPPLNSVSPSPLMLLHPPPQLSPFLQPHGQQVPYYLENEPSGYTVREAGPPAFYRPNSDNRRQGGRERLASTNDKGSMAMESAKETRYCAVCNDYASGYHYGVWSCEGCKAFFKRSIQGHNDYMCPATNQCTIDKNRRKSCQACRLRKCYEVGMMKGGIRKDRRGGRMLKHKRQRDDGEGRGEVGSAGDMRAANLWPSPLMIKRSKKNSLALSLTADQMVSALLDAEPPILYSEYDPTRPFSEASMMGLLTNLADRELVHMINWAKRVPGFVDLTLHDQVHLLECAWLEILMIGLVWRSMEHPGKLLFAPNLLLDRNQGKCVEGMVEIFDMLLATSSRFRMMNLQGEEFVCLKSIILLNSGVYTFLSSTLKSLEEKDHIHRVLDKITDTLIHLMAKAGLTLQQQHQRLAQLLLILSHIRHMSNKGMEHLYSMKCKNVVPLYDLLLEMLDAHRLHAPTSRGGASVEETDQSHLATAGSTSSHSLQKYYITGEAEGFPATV
Test: biochemical
Format: binding

Q: For CCCCC(CC)COC(=O)c1ccccc1C(=O)OCC(CC)CCCC (stereo not shown) [DEHP], which IC50 is on record?
A: ~500 µM
